Assay results taken from patent US4452786A, “Condurango glycoside compounds, processes for their preparation, antitumor agents comprising them and compositions” (Zenyaku Kogyo Kabushiki Kaisha, priority 1980, dated 1984).

Columns and labels:
ddy male mice = assay: Acute toxicity, intraperitoneal administration to mice, five days observation; assay type: in vivo; settings: intraperitoneally, five weeks old ddy male mice, 7200 min
Excerpt: (§1) Next, the acute toxicity of the compounds of the present invention is as follows.

Ehrlich carcinoma = assay: Screening test against Ehrlich carcinoma, subcutaneous solid type, in mice (T/C of tumor weight on thirtieth day); assay type: in vivo, ddy male mice; settings: intraperitoneally, once per day for ten days, average tumor weight on thirtieth day
Experimental: The activity of the compounds of the present invention against Ehrlich carcinoma was confirmed by the screening test mentioned below.
Ehrlich carcinoma was employed for the determination of the antitumor properties, and the tumor to be tested was of subcutaneous solid type.
The animal group to which the compounds of the present invention were administered consisted of seven mice, whereas the control group consisted of ten mice.
Six weeks old ddy male mice (body weight: 28-30 g) were employed except for the case where condurango glycoside Ao or Co was administered; in the latter case those weighing 20-26 g and being five weeks old were used.
The tumors were transplanted intraperitoneally in the mice. On the seventh day after the transplantation, the well grown cells of the tumors were taken out, and 1.5×10^6 cells (3.0×10^6 cells in the case where condurango glycoside Ao or Co was given) thereof was transplanted subcutaneously in the inguinal region of the mice to form solid tumors. At and after 24 hours after the transplantation, the compounds of the present invention dissolved in physiological saline solutions were administered to the mice intraperitoneally.
The volume of the respective solutions administered was 0.2 ml per mouse at one time, and the administration was continued for ten days at a rate of one time per day. Only physiological saline solutions were given to the mice of the control group.
On the thirtieth day after the transplantation, the tumors were taken out and measured to get the average weight of the tumors of the mice of the group to which the compounds of the present invention had been administered (T) and that of the control group (C) and to calculate the T/C (%).

[1] = Acute toxicity, intraperitoneal administration to mice, five days observation; assay type: in vivo; settings: mouse, in vivo, ip, intraperitoneally, five weeks old ddy male mice
Excerpt: as §1

Compound	LD50 (ddy male mice) [mg/kg]	T/C (%) (Ehrlich carcinoma; 8 mg/kg × 10 times)	T/C (%) (Ehrlich carcinoma; 16 mg/kg × 10 times)	T/C (%) (Ehrlich carcinoma; 32 mg/kg × 10 times)	LD50 at 120 h [1] [mg/kg]
COC1CC(OC2CCC3(C)C(CCC4C3C(OC(=O)C=Cc3ccccc3)C(OC(C)=O)C35COC(C)(OC)C3CCC45O)C2)OC(C)C1OC1CC(OC)C(OC2OC(C)C(OC3OC(CO)C(O)C(O)C3O)C(OC)C2O)C(C)O1 (stereo not drawn) [20-Iso-O-methyl-condurango glycoside Do, 20-iso-O-methyl-condurango glycoside Do]	642	38.1	26.3	18.0	
COC1CC(OC2CCC3(C)C(CCC4C3C(OC(=O)C=Cc3ccccc3)C(OC(C)=O)C35COC(C)(OC)C3CCC45O)C2)OC(C)C1OC1CC(OC)C(OC2OC(C)C(OC3OC(CO)C(O)C(O)C3O)C(OC)C2O)C(C)O1 (stereo not drawn) [20-O-methyl-condurango glycoside Do]		16.5	11.6		603
COC1CC(OC2CCC3(C)C(CCC4C3C(OC(=O)C=Cc3ccccc3)C(OC(C)=O)C3(C)C(C(C)=O)CCC43O)C2)OC(C)C1OC1CC(OC)C(OC2OC(C)C(OC3OC(CO)C(O)C(O)C3O)C(OC)C2O)C(C)O1 (stereo not drawn) [Condurango glycoside Ao, condurango glycoside Ao]		32.1	27.3		75
COC1CC(OC2CCC3(C)C(CCC4C3C(OC(=O)C=Cc3ccccc3)C(OC(C)=O)C35COC6(C)OC43CCC65)C2)OC(C)C1OC1CC(OC)C(OC2OC(C)C(OC3OC(CO)C(O)C(O)C3O)C(OC)C2O)C(C)O1 (stereo not drawn) [Condurango glycoside Bo, condurango glycoside Bo]		23.3	11.8	10.0	615
COC1CC(OC2CCC3(C)C(CCC4C3C(OC(=O)C=Cc3ccccc3)C(OC(C)=O)C3(C)C(C(C)O)CCC43O)C2)OC(C)C1OC1CC(OC)C(OC2OC(C)C(OC3OC(CO)C(O)C(O)C3O)C(OC)C2O)C(C)O1 (stereo not drawn) [Condurango glycoside Co, condurango glycoside Co]			30.8	20.1	375
COC1CC(OC2CCC3(C)C(CCC4C3C(OC(=O)C=Cc3ccccc3)C(OC(C)=O)C35COC(C)(O)C3CCC45O)C2)OC(C)C1OC1CC(OC)C(OC2OC(C)C(OC3OC(CO)C(O)C(O)C3O)C(OC)C2O)C(C)O1 (stereo not drawn) [Condurango glycoside Do, condurango glycoside Do]		29.0	53.8	9.5	630
